# According to patent US20130267547A1, “PRODRUGS UTILIZING A TRANSPORTER-DIRECTED UPTAKE MECHANISM” (VIRGINIA COMMONWEALTH UNIVERSITY, priority 2010, published 2013):
# Experiments:
# plasma esterases = assay: Stability in human plasma; format: in vitro ADME
# Procedure: The stability of SLPV was determined by incubating SLPV (20 μM) in human plasma from one healthy adult at 37° C. for 18 hours.
# [1] = test system: fresh human placental villous tissue; assay: Incubation of DGLPV with fresh human placental villous tissue (HPLC of medium and tissue); format: in vitro ADME
# Procedure: DGLPV was synthesized as described above. The amount of DGLPV in the media originally containing 100 uM DGLPV was measured using HPLC as described above, and again after a 30 minute incubation with fresh human placental villous tissue in the same media.
# To confirm that the DGLPV was taken up by the tissue and hydrolyzed therein, HPLC was used to measure the amount of free LPV present in the tissue.
# BeWo cells [2] = assay: Uptake of non-radiolabelled LPV esters in BeWo cells (LC-MS/MS); format: cell-based, human; settings: for Rank order of uptake: non-radiolabelled esters
# Procedure: (§1) NMR spectroscopy was performed on the compounds including GLPV (FIG. 14A). […] An LC-MS/MS assay was developed and validated to determine concentrations of the novel compounds in biological matrices and fluids, as shown in FIG. 14B.
# [3] = Hydrolysis of LPV esters in vivo in rats
# Procedure: as §1
# BeWo cells [4] = assay: Uptake of 3H-lopinavir, 3H-succinyl-lopinavir and 3H-carnitine-succinyl-lopinavir by BeWo cells, with and without transport inhibitors; settings: for inhibition at 100 µM / inhibition at 250 µM: Homo sapiens, BeWo, read-out: Extent of Uptake Inhibition
# Procedure: FIG. 10. […] BeWo cells (passage 38) were incubated with the compounds for 10 minutes at 37° C. or 4° C. in Dulbecco's phosphate buffered saline containing 0.05% bovine serum albumin. After incubation, the cells were washed with the cold buffer (lacking the compounds), and compounds were extracted from the cells into methanol followed by liquid scintillation analysis.
# Specifically, bromosulfophthalein (BSP) is an inhibitor of several organic anion transporters (OATs; gene family SLC22A), as well as organic anion transporting polypeptides (OATPs; gene family SLCO). […] Finally, taurocholate is a classic substrate for bile salt transporters, including the sodium-dependent taurocholate transporter (NTCP; SLC10A1), the apical bile salt transporter (ASBT; SLC10A2), and certain OATPs.
# The BeWo cell line is originally derived from a human choriocarcinoma. The BeWo cell line (Schwartz clone; passage 30) was a gift. BeWo cells in these studies is used between passages 30-70. BeWo cells are cultured in high glucose Dulbecco's modified Eagle's medium (DMEM) supplemented with 10% heat inactivated fetal bovine serum (FBS).
# [5] = test system: human primary cytotrophoblast cells; assay: Uptake of 3H-SLPV and 3H-LPV by primary cytotrophoblast cells; format: cell-based
# From the text: We also isolated primary cytotrophoblast cells from one term (39 weeks gestation) placenta delivered by cesarean section. […] (FIG. 7).
# P-glycoprotein = settings: mice; cited from earlier work
structure (smiles),measurement,setting,value
"Cc1cccc(C)c1OCC(=O)NC(Cc1ccccc1)[C@H](CC(Cc1ccccc1)NC(=O)[C@H](C(C)C)N1CCCNC1=O)OC(=O)COCC(=O)O (some centres unmarked) [DGLPV, Diglycolic-Lopinavir]",half-life,"plasma esterases; human, plasma, preliminary data, read-out: Plasma hydrolysis half-life (converted)",~2 h
same,Amount of DGLPV in the medium after incubation with tissue,"[1]; 100 uM DGLPV, 30 minute incubation",decrease in DGLPV in the medium
same,"Hydrolysis in the tissue to release free lopinavir, in words",[1]; human placental villous tissue,can also be hydrolyzed in the tissue
same,"Transport into human tissues, in words",[1]; human placental villous tissue,can also be transported into human tissues
same,"Temperature dependence of uptake, in words",BeWo cells [2],temperature dependent
same,Rank order of uptake,BeWo cells [2],GLPV>SLPV>DGLPV
same,"Hydrolysis in vivo, in words",[3],capable of being hydrolyzed in vivo
"Cc1cccc(C)c1OCC(=O)N[C@@H](Cc1ccccc1)[C@@H](O)C[C@H](Cc1ccccc1)NC(=O)[C@H](C(C)C)N1CCCNC1=O [LPV, lopinavir, reference compound]",Extent of Uptake Inhibition,"BeWo cells [4]; Cold (4° C.), BeWo cells",10%
same,inhibition at 100 µM,BeWo cells [4],9%
same,inhibition at 250 µM,BeWo cells [4],7%
"Cc1cccc(C)c1OCC(=O)NC(Cc1ccccc1)C(CC(Cc1ccccc1)NC(=O)C(C(C)C)N1CCCNC1=O)OC(=O)CCC(=O)O (centres unmarked) [SLPV, Succinyl-lopinavir]",Reduction of uptake in the presence of linoleic acid,"BeWo cells [4]; 40 μM linoleic acid (LA), BeWo cells, p<0.05",34%
"Cc1cccc(C)c1OCC(=O)NC(Cc1ccccc1)[C@H](CC(Cc1ccccc1)NC(=O)[C@H](C(C)C)N1CCCNC1=O)OC(=O)CCC(=O)O (some centres unmarked) [SLPV, Succinyl-lopinavir]","Effect of ABC transporter inhibitor MK571 on uptake, in words",BeWo cells [4],slight increase in uptake
same,"Effect of arachidonic acid on uptake, in words",BeWo cells [4],no effect
same,"Temperature dependence of uptake, in words",BeWo cells [4],inhibited at reduced temperatures
same,Extent of Uptake Inhibition,"BeWo cells [4]; Cold (4° C.), BeWo cells",62%
same,inhibition at 100 µM,BeWo cells [4],-1%
same,inhibition at 250 µM,BeWo cells [4],7%
same,"Temperature dependence of uptake, in words","BeWo cells [4]; human, 10 minutes",significantly less than at 37 °C
same,Extent of Uptake Inhibition,"BeWo cells [4]; linoleic acid (40 mM), BeWo cells",40%
same,Extent of Uptake Inhibition,"BeWo cells [4]; valproic acid (1 mM), BeWo cells",5%
same,"Temperature dependence of uptake, in words","[5]; 4° C. vs 37° C., cytotrophoblasts",temperature-dependent
same,Uptake relative to uptake of LPV,"[5]; human placental cytotrophoblasts, 37° C., after 24 hrs in culture",10 fold
same,"Stability in human plasma, in words","plasma esterases; 20 μM, human plasma from one healthy adult, 37° C., 18 hours",completely stable to plasma esterases
same,"Temperature dependence of uptake, in words",BeWo cells [2],temperature dependent
same,Rank order of uptake,BeWo cells [2],GLPV>SLPV>DGLPV
CC(=O)O[C@H]1C(=O)[C@@]2(C)[C@H]([C@H](OC(=O)c3ccccc3)[C@]3(O)C[C@H](OC(=O)[C@H](O)[C@@H](NC(=O)c4ccccc4)c4ccccc4)C(C)=C1C3(C)C)[C@]1(OC(C)=O)CO[C@@H]1C[C@@H]2O [paclitaxel],Fold more drug entering P-glycoprotein deficient Abcb1a−/−/1b−/− fetuses than wild type fetuses,P-glycoprotein,16 fold
